Source: patent US20070049564A1 (Wyeth, priority 2005, published 2007)
Converted amounts (≈) assume the structure as drawn. Where two headings read alike, the source gives them in different places.

Key:
E. coli = assay: Range of MIC for E. coli strains; settings: Escherichia coli
Staph. = assay: Range of MIC for Staph. strains, including MRSA; settings: Staphylococcus aureus
Staph. aureus Smith = assay: In vivo activity (oral, iv; ED50) against Staph. aureus Smith in mice
Method: Representative examples of compounds of Formula I were tested for the oral efficacy using S. aureus Smith in mice.

[1] = 20 h, read-out: Range of MIC, E. coli (Mouse Serum)
[2] = read-out: Range of MIC, E. coli (Water)
[3] = MRSA, read-out: Range of MIC, Staph (Mouse Serum)
[4] = MRSA, read-out: Range of MIC, Staph (Water)
[5] = Staphylococcus aureus, in Mus musculus, po, read-out: ED50 Staph Smith SOD
[6] = iv, read-out: ED50 Staph Smith SIV
[7] = read-out: Minimum inhibitory concentration (MIC), E. coli (mouse serum)
[8] = read-out: Minimum inhibitory concentration (MIC), E. coli (water)
[9] = MRSA, read-out: Minimum inhibitory concentration (MIC), Staph. (mouse serum)
[10] = MRSA, read-out: Minimum inhibitory concentration (MIC), Staph. (water)
[11] = read-out: Minimum inhibitory concentration (MIC), E. coli (Human Serum)
[12] = read-out: Minimum inhibitory concentration (MIC), Staph (Human Serum)
[13] = read-out: Minimum inhibitory concentration (MIC), Staph (Water)

| SMILES | MIC (E. coli; [1]) [µg/mL] | MIC (E. coli; [2]) [µg/mL] | MIC (Staph.; [3]) [µg/mL] | MIC (Staph.; [4]) [µg/mL] | ED50 (Staph. aureus Smith; [5]) [mg/kg] | ED50 (Staph. aureus Smith; [6]) [mg/kg] | MIC (E. coli; [7]) [µg/mL] | MIC (E. coli; [8]) [µg/mL] | MIC (Staph.; [9]) [µg/mL] | MIC (Staph.; [10]) [µg/mL] | MIC (E. coli; [11]) [µg/mL] | MIC (Staph.; [12]) [µg/mL] | MIC (Staph.; [13]) [µg/mL] | MIC (E. coli; read-out: Range of MIC, E. coli (mouse serum)) [µg/mL] | MIC (Staph.; MRSA, read-out: Range of MIC, Staph. (mouse serum)) [µg/mL] | MIC (Staph.; MRSA, read-out: Range of MIC, Staph. (water)) [µg/mL] |
| --- | --- | --- | --- | --- | --- | --- | --- | --- | --- | --- | --- | --- | --- | --- | --- | --- |
| CCCCN(CC(=O)Nc1cc(N(C)C)c2c(c1O)C(=O)C1=C(O)[C@]3(O)C(=O)C(C(N)=O)=C(O)[C@@H](N(C)C)C3CC1C2)C(=O)OCc1oc(=O)oc1-c1ccccc1 (stereo partly drawn) [Example 112, (2-oxo-5-phenyl-1,3-dioxol-4-yl)methyl 2-{[(7S,10aS)-9-(aminocarbonyl)-4,7-bis(dimethylamino)-1,8,10a,11-tetrahydroxy-10,12-dioxo-5,5a,6,6a,7,10,10a,12-octahydrotetracen-2-yl]amino}-2-oxoethyl(butyl)carbamate] | 1 to 4 (≈ 1.24 to 4.98 µM) | 2 to 8 (≈ 2.49 to 9.95 µM) | 2 to 8 (≈ 2.49 to 9.95 µM) | 4 to 16 (≈ 4.98 to 19.9 µM) | 6.12 | 0.48 |  |  |  |  |  |  |  |  |  |  |
| CCCN(CC(=O)Nc1cc(N(C)C)c2c(c1O)C(=O)C1=C(O)[C@]3(O)C(=O)C(C(N)=O)=C(O)[C@@H](N(C)C)[C@@H]3C[C@@H]1C2)C(=O)OCOC(=O)C(C)(C)CC [Example 37, ({[(2-{[(5aR,6aS,7S,10aS)-9-(aminocarbonyl)-4,7-bis(dimethylamino)-1,8,10a,11-tetrahydroxy-10,12-dioxo-5,5a,6,6a,7,10,10a,12-octahydrotetracen-2-yl]amino}-2-oxoethyl)(propyl)amino]carbonyl}oxy)methyl 2,2-dimethylbutanoate] | 2 to 4 (≈ 2.69 to 5.38 µM) | 4 to 32 (≈ 5.38 to 43 µM) | 1 to 4 (≈ 1.34 to 5.38 µM) | 2 to 4 (≈ 2.69 to 5.38 µM) | 4.1 | 0.55 |  |  |  |  |  |  |  |  |  |  |
| CCCCN(CC(=O)Nc1cc(N(C)C)c2c(c1O)C(=O)C1=C(O)[C@]3(O)C(=O)C(C(N)=O)=C(O)[C@@H](N(C)C)[C@@H]3C[C@@H]1C2)C(=O)OCOC(=O)C1CCC1 [Example 18, ({[(2-{[(5aR,6aS,7S,10aS)-9-(aminocarbonyl)-4,7-bis(dimethylamino)-1,8,10a,11-tetrahydroxy-10,12-dioxo-5,5a,6,6a,7,10,10a,12-octahydrotetracen-2-yl]amino}-2-oxoethyl)(butyl)amino]carbonyl}oxy)methyl cyclobutanecarboxylate] | 0.5 to 2 (≈ 0.674 to 2.7 µM) | 4 to 8 (≈ 5.39 to 10.8 µM) | 1 to 4 (≈ 1.35 to 5.39 µM) | 1 to 4 (≈ 1.35 to 5.39 µM) | 29 | 0.6 | 0.5 to 2 (≈ 0.674 to 2.7 µM) | 4 to 8 (≈ 5.39 to 10.8 µM) | 1 to 4 (≈ 1.35 to 5.39 µM) | 1 to 4 (≈ 1.35 to 5.39 µM) |  |  |  |  |  |  |
| CN(C)c1cc(NC(=O)CN(C(=O)OCOC(=O)c2ccc3ccccc3c2)C(C)(C)C)c(O)c2c1C[C@H]1C[C@H]3[C@H](N(C)C)C(O)=C(C(N)=O)C(=O)[C@@]3(O)C(O)=C1C2=O [Example 82, ({[(2-{[(5aR,6aS,7S,10aS)-9-(aminocarbonyl)-4,7-bis(dimethylamino)-1,8,10a,11-tetrahydroxy-10,12-dioxo-5,5a,6,6a,7,10,10a,12-octahydrotetracen-2-yl]amino}-2-oxoethyl)(tert-butyl)amino]carbonyl}oxy)methyl 2-naphthoate] |  | > 64 | 4 to 6 (≈ 4.91 to 7.37 µM) | 4 to 8 (≈ 4.91 to 9.83 µM) | 22 | 0.52 |  |  |  |  |  |  |  |  |  |  |
| CN(C)c1cc(NC(=O)CN(C(=O)OCOC(=O)C23CC4CC(CC(C4)C2)C3)C(C)(C)C)c(O)c2c1C[C@H]1C[C@H]3[C@H](N(C)C)C(O)=C(C(N)=O)C(=O)[C@@]3(O)C(O)=C1C2=O [Example 57, ({[(2-{[(5aR,6aS,7S,10aS)-9-(aminocarbonyl)-4,7-bis(dimethylamino)-1,8,10a,11-tetrahydroxy-10,12-dioxo-5,5a,6,6a,7,10,10a,12-octahydrotetracen-2-yl]amino}-2-oxoethyl)(tert-butyl)amino]carbonyl}oxy)methyl adamantane-1-carboxylate] | 0.5 to 4 (≈ 0.608 to 4.87 µM) | > 64 | 0.5 to 2 (≈ 0.608 to 2.43 µM) | 4 to 16 (≈ 4.87 to 19.5 µM) | 6.36 | 1.17 |  | > 64 |  |  | > 64 | 1 to 8 (≈ 1.22 to 9.73 µM) | 4 to 16 (≈ 4.87 to 19.5 µM) |  |  |  |
| CCCCN(CC(=O)Nc1cc(N(C)C)c2c(c1O)C(=O)C1=C(O)[C@]3(O)C(=O)C(C(N)=O)=C(O)[C@@H](N(C)C)C3CC1C2)C(=O)OC(C)OC(C)=O (stereo partly drawn) [Example 32, 1-({[(2-{[(7S,10aS)-9-(aminocarbonyl)-4,7-bis(dimethylamino)-1,8,10a,11-tetrahydroxy-10,12-dioxo-5,5a,6,6a,7,10,10a,12-octahydrotetracen-2-yl]amino}-2-oxoethyl)(butyl)amino]carbonyl}oxy)ethyl acetate] | 0.5 to 1 | 1 to 4 | 0.25 to 2 | 0.5 to 4 | 7.7 | 0.56 |  |  |  |  |  |  |  |  |  |  |
| CCCN(CC(=O)Nc1cc(N(C)C)c2c(c1O)C(=O)C1=C(O)[C@]3(O)C(=O)C(C(N)=O)=C(O)[C@@H](N(C)C)[C@@H]3C[C@@H]1C2)C(=O)OCOC(=O)c1ccco1 [Example 31, ({[(2-{[(5aR,6aS,7S,10aS)-9-(aminocarbonyl)-4,7-bis(dimethylamino)-1,8,10a,11-tetrahydroxy-10,12-dioxo-5,5a,6,6a,7,10,10a,12-octahydrotetracen-2-yl]amino}-2-oxoethyl)(propyl)amino]carbonyl}oxy)methyl 2-furate] | 0.5 to 1 (≈ 0.676 to 1.35 µM) |  | 0.25 to 2 (≈ 0.338 to 2.7 µM) | 0.5 to 4 (≈ 0.676 to 5.41 µM) | 11.1 | 0.31 |  |  |  |  |  |  |  | 0.5 to 1 (≈ 0.676 to 1.35 µM) | 0.25 to 2 (≈ 0.338 to 2.7 µM) | 0.5 to 4 (≈ 0.676 to 5.41 µM) |
| CCCCN(CC(=O)Nc1cc(N(C)C)c2c(c1O)C(=O)C1=C(O)[C@]3(O)C(=O)C(C(N)=O)=C(O)[C@@H](N(C)C)C3CC1C2)C(=O)OCc1oc(=O)oc1-c1ccc(OC)cc1 (stereo partly drawn) [Example 113, [5-(4-methoxyphenyl)-2-oxo-1,3-dioxol-4-yl]methyl 2-{[(7S,10aS)-9-(aminocarbonyl)-4,7-bis(dimethylamino)-1,8,10a,11-tetrahydroxy-10,12-dioxo-5,5a,6,6a,7,10,10a,12-octahydrotetracen-2-yl]amino}-2-oxoethyl(butyl)carbamate] | 1 to 4 (≈ 1.2 to 4.8 µM) | 2 to 16 (≈ 2.4 to 19.2 µM) | 4 to 16 (≈ 4.8 to 19.2 µM) | 4 to 32 (≈ 4.8 to 38.4 µM) | 7.01 | 0.4 |  |  |  |  |  |  |  |  |  |  |
| CCCCN(CC(=O)Nc1cc(N(C)C)c2c(c1O)C(=O)C1=C(O)[C@]3(O)C(=O)C(C(N)=O)=C(O)[C@@H](N(C)C)C3CC1C2)C(=O)OCOC(=O)C1CCCCC1 (stereo partly drawn) [Example 34, ({[(2-{[(7S,10aS)-9-(aminocarbonyl)-4,7-bis(dimethylamino)-1,8,10a,11-tetrahydroxy-10,12-dioxo-5,5a,6,6a,7,10,10a,12-octahydrotetracen-2-yl]amino}-2-oxoethyl)(butyl)amino]carbonyl}oxy)methyl cyclohexanecarboxylate] | 0.5 to 1 (≈ 0.649 to 1.3 µM) | 4 to 16 (≈ 5.2 to 20.8 µM) | 0.25 to 4 (≈ 0.325 to 5.2 µM) | 0.25 to 4 (≈ 0.325 to 5.2 µM) | 12.9 | 0.71 | 0.5 to 1 (≈ 0.649 to 1.3 µM) | 4 to 16 (≈ 5.2 to 20.8 µM) | 0.25 to 4 (≈ 0.325 to 5.2 µM) | 0.25 to 4 (≈ 0.325 to 5.2 µM) |  |  |  |  |  |  |
| CCCCN(CC(=O)Nc1cc(N(C)C)c2c(c1O)C(=O)C1=C(O)[C@]3(O)C(=O)C(C(N)=O)=C(O)[C@@H](N(C)C)[C@@H]3C[C@@H]1C2)C(=O)OCOC(=O)c1ccco1 [Example 30, ({[(2-{[(5aR,6aS,7S,10aS)-9-(aminocarbonyl)-4,7-bis(dimethylamino)-1,8,10a,11-tetrahydroxy-10,12-dioxo-5,5a,6,6a,7,10,10a,12-octahydrotetracen-2-yl]amino}-2-oxoethyl)(butyl)amino]carbonyl}oxy)methyl 2-furate] | 0.5 to 1 (≈ 0.663 to 1.33 µM) |  | 0.25 to 2 (≈ 0.332 to 2.65 µM) | 1 to 8 (≈ 1.33 to 10.6 µM) | 15.1 | 0.41 | 0.5 to 1 (≈ 0.663 to 1.33 µM) |  | 0.25 to 2 (≈ 0.332 to 2.65 µM) | 1 to 8 (≈ 1.33 to 10.6 µM) |  |  |  |  |  |  |
| CN(C)c1cc(NC(=O)CN(C(=O)OCOC(=O)c2ccc(N3CCCC3)cc2)C(C)(C)C)c(O)c2c1C[C@H]1C[C@H]3[C@H](N(C)C)C(O)=C(C(N)=O)C(=O)[C@@]3(O)C(O)=C1C2=O [Example 93, ({[(2-{[(5aR,6aS,7S,10aS)-9-(aminocarbonyl)-4,7-bis(dimethylamino)-1,8,10a,11-tetrahydroxy-10,12-dioxo-5,5a,6,6a,7,10,10a,12-octahydrotetracen-2-yl]amino}-2-oxoethyl)(tert-butyl)amino]carbonyl}oxy)methyl 4-pyrrolidin-1-ylbenzoate] | 1 to 4 (≈ 1.2 to 4.8 µM) |  | 1 to 2 (≈ 1.2 to 2.4 µM) | 32 to 64 (≈ 38.4 to 76.8 µM) | > 32 | 0.5 to 1 |  |  |  |  |  |  |  |  |  |  |
| CN(C)c1cc(NC(=O)CN(C(=O)OCOC(=O)C2CC2)C(C)(C)C)c(O)c2c1C[C@H]1C[C@H]3[C@H](N(C)C)C(O)=C(C(N)=O)C(=O)[C@@]3(O)C(O)=C1C2=O [Example 56, ({[(2-{[(5aR,6aS,7S,10aS)-9-(aminocarbonyl)-4,7-bis(dimethylamino)-1,8,10a,11-tetrahydroxy-10,12-dioxo-5,5a,6,6a,7,10,10a,12-octahydrotetracen-2-yl]amino}-2-oxoethyl)(tert-butyl)amino]carbonyl}oxy)methyl cyclopropanecarboxylate] | 0.25 to 2 (≈ 0.344 to 2.75 µM) |  | 0.25 to 1 (≈ 0.344 to 1.37 µM) | 1 to 4 (≈ 1.37 to 5.5 µM) | > 16 | 0.79 |  |  |  |  | 4 to 32 (≈ 5.5 to 44 µM) | 0.25 to 2 (≈ 0.344 to 2.75 µM) | 1 to 4 (≈ 1.37 to 5.5 µM) |  |  |  |
